# Reference: publication PMC10066365, “Nemacol is a small molecule inhibitor of C. elegans vesicular acetylcholine transporter with anthelmintic potential” (Nature Communications, 2023)
# “And” between values parts separate entries of the source, which are not always exact repeats. Equal values may be shown once.
# Assays:
# Type in all cases: in vivo, Caenorhabditis elegans
# C. elegans = test: Suppression of trichlorfon (AChE inhibitor) paralysis, double dose-response, scored after 80 min; conditions: wild-type, bio rep 1-3
# C. elegans DA1316 = test: C. elegans 3-day liquid viability assay, DA1316 avr-14; avr-15; […]; conditions: for total animals normalized to corresponding controls: DA1316
# [1] = Motor phenotype time course on 60 μM Nemacol-1, EMB-8 disruption vs wild type; conditions: N2, 60µM, count per bio rep
# [2] = test system: C. elegans emb-8(hc69); emb-8(RNAi); test: as above; conditions: N2, 60µM, 1h
# [3] = average of 3 biological repeats
structure (smiles),measurement,setting,value
O=[N+]([O-])c1ccc(N2CCN(CC3CCCCC3)CC2)cc1 [Nemacol-1],% para (percentage of animals able to adopt a clear sinusoidal wave pattern upon touch on the nose),C. elegans; Nemacol-1 3.75 uM + trichlorfon 0 uM,100%
same,% para (percentage of animals able to adopt a clear sinusoidal wave pattern upon touch on the nose),C. elegans; Nemacol-1 3.75 uM + trichlorfon 25 uM,96.4286% and 92.8571% and 100%
same,% para (percentage of animals able to adopt a clear sinusoidal wave pattern upon touch on the nose),C. elegans; Nemacol-1 3.75 uM + trichlorfon 50 uM,96.4286% and 85.7143% and 75%
same,% para (percentage of animals able to adopt a clear sinusoidal wave pattern upon touch on the nose),C. elegans; Nemacol-1 3.75 uM + trichlorfon 100 uM,28.5714% and 32.1429% and 39.2857%
same,% para (percentage of animals able to adopt a clear sinusoidal wave pattern upon touch on the nose),C. elegans; Nemacol-1 3.75 uM + trichlorfon 200 uM,10.7143% and 7.143%
same,% para (percentage of animals able to adopt a clear sinusoidal wave pattern upon touch on the nose),C. elegans; Nemacol-1 3.75 uM + trichlorfon 400 uM,3.571% and 0%
same,% para (percentage of animals able to adopt a clear sinusoidal wave pattern upon touch on the nose),C. elegans; Nemacol-1 3.75 uM + trichlorfon 800 uM,0%
same,% para (percentage of animals able to adopt a clear sinusoidal wave pattern upon touch on the nose),C. elegans; Nemacol-1 15 uM + trichlorfon 0 uM,96.4286% and 100%
same,% para (percentage of animals able to adopt a clear sinusoidal wave pattern upon touch on the nose),C. elegans; Nemacol-1 15 uM + trichlorfon 25 uM,100%
same,% para (percentage of animals able to adopt a clear sinusoidal wave pattern upon touch on the nose),C. elegans; Nemacol-1 15 uM + trichlorfon 50 uM,92.8571% and 46.4286% and 64.2857%
same,% para (percentage of animals able to adopt a clear sinusoidal wave pattern upon touch on the nose),C. elegans; Nemacol-1 15 uM + trichlorfon 100 uM,82.1429% and 53.5714% and 71.4286%
same,% para (percentage of animals able to adopt a clear sinusoidal wave pattern upon touch on the nose),C. elegans; Nemacol-1 15 uM + trichlorfon 400 uM,14.2857% and 7.143%
same,% para (percentage of animals able to adopt a clear sinusoidal wave pattern upon touch on the nose),C. elegans; Nemacol-1 15 uM + trichlorfon 800 uM,0% and 3.571%
same,% para (percentage of animals able to adopt a clear sinusoidal wave pattern upon touch on the nose),C. elegans; Nemacol-1 30 uM + trichlorfon 0 uM,100%
same,% para (percentage of animals able to adopt a clear sinusoidal wave pattern upon touch on the nose),C. elegans; Nemacol-1 30 uM + trichlorfon 25 uM,100%
same,% para (percentage of animals able to adopt a clear sinusoidal wave pattern upon touch on the nose),C. elegans; Nemacol-1 30 uM + trichlorfon 50 uM,85.7143% and 89.2857% and 92.8571%
same,% para (percentage of animals able to adopt a clear sinusoidal wave pattern upon touch on the nose),C. elegans; Nemacol-1 30 uM + trichlorfon 100 uM,78.5714% and 82.1429%
same,% para (percentage of animals able to adopt a clear sinusoidal wave pattern upon touch on the nose),C. elegans; Nemacol-1 30 uM + trichlorfon 200 uM,53.5714% and 32.1429% and 39.2857%
same,% para (percentage of animals able to adopt a clear sinusoidal wave pattern upon touch on the nose),C. elegans; Nemacol-1 30 uM + trichlorfon 800 uM,3.571%
same,% para (percentage of animals able to adopt a clear sinusoidal wave pattern upon touch on the nose),C. elegans; Nemacol-1 60 uM + trichlorfon 0 uM,50% and 82.1429% and 71.4286%
same,% para (percentage of animals able to adopt a clear sinusoidal wave pattern upon touch on the nose),C. elegans; Nemacol-1 60 uM + trichlorfon 25 uM,85.7143% and 75% and 78.5714%
same,% para (percentage of animals able to adopt a clear sinusoidal wave pattern upon touch on the nose),C. elegans; Nemacol-1 60 uM + trichlorfon 50 uM,78.5714% and 57.1429% and 67.8571%
same,% para (percentage of animals able to adopt a clear sinusoidal wave pattern upon touch on the nose),C. elegans; Nemacol-1 60 uM + trichlorfon 100 uM,53.5714% and 67.8571%
same,% para (percentage of animals able to adopt a clear sinusoidal wave pattern upon touch on the nose),C. elegans; Nemacol-1 60 uM + trichlorfon 200 uM,35.7143% and 57.1429% and 50%
same,% para (percentage of animals able to adopt a clear sinusoidal wave pattern upon touch on the nose),C. elegans; Nemacol-1 60 uM + trichlorfon 800 uM,3.571% and 7.143%
same,% para (percentage of animals able to adopt a clear sinusoidal wave pattern upon touch on the nose),C. elegans; Nemacol-1 […] + trichlorfon 25 uM,100%
same,% para (percentage of animals able to adopt a clear sinusoidal wave pattern upon touch on the nose),C. elegans; Nemacol-1 […] + trichlorfon 800 uM,0%
same,total animals normalized to corresponding controls,C. elegans DA1316; ivermectin 0 uM + nemacol-1 5.72205e-5,117.10
same,total animals normalized to corresponding controls,C. elegans DA1316; ivermectin 0 uM + nemacol-1 0.0146484,91.26
same,total animals normalized to corresponding controls,C. elegans DA1316; ivermectin 0 uM + nemacol-1 3.75,106.04
same,total animals normalized to corresponding controls,C. elegans DA1316; ivermectin 0 uM + nemacol-1 7.5,111.01
same,total animals normalized to corresponding controls,C. elegans DA1316; ivermectin 0 uM + nemacol-1 15,100.31
same,total animals normalized to corresponding controls,C. elegans DA1316; ivermectin 0 uM + nemacol-1 30,100.23
same,total animals normalized to corresponding controls,C. elegans DA1316; ivermectin 0 uM + nemacol-1 60,99.19
same,total animals normalized to corresponding controls,C. elegans DA1316; ivermectin 0.0009375 uM + nemacol-1 0.000114441,112.95
same,total animals normalized to corresponding controls,C. elegans DA1316; ivermectin 0.0009375 uM + nemacol-1 0.0292969,124.80
same,total animals normalized to corresponding controls,C. elegans DA1316; ivermectin 0.0009375 uM + nemacol-1 3.75,113.26
same,total animals normalized to corresponding controls,C. elegans DA1316; ivermectin 0.0009375 uM + nemacol-1 7.5,122.67
same,total animals normalized to corresponding controls,C. elegans DA1316; ivermectin 0.0009375 uM + nemacol-1 15,99.45
same,total animals normalized to corresponding controls,C. elegans DA1316; ivermectin 0.0009375 uM + nemacol-1 30,96.12
same,total animals normalized to corresponding controls,C. elegans DA1316; ivermectin 0.0009375 uM + nemacol-1 60,95.59
same,total animals normalized to corresponding controls,C. elegans DA1316; ivermectin 0.001875 uM + nemacol-1 0.000228882,117.74
same,total animals normalized to corresponding controls,C. elegans DA1316; ivermectin 0.001875 uM + nemacol-1 0.0585938,95.40
same,total animals normalized to corresponding controls,C. elegans DA1316; ivermectin 0.001875 uM + nemacol-1 3.75,107.81
same,total animals normalized to corresponding controls,C. elegans DA1316; ivermectin 0.001875 uM + nemacol-1 7.5,110.79
same,total animals normalized to corresponding controls,C. elegans DA1316; ivermectin 0.001875 uM + nemacol-1 15,103.40
same,total animals normalized to corresponding controls,C. elegans DA1316; ivermectin 0.001875 uM + nemacol-1 30,87.76
same,total animals normalized to corresponding controls,C. elegans DA1316; ivermectin 0.001875 uM + nemacol-1 60,95.73
same,total animals normalized to corresponding controls,C. elegans DA1316; ivermectin 0.00375 uM + nemacol-1 0.000457764,105.05
same,total animals normalized to corresponding controls,C. elegans DA1316; ivermectin 0.00375 uM + nemacol-1 0.117188,110.64
same,total animals normalized to corresponding controls,C. elegans DA1316; ivermectin 0.00375 uM + nemacol-1 3.75,115.16
same,total animals normalized to corresponding controls,C. elegans DA1316; ivermectin 0.00375 uM + nemacol-1 7.5,104.58
same,total animals normalized to corresponding controls,C. elegans DA1316; ivermectin 0.00375 uM + nemacol-1 15,92.41
same,total animals normalized to corresponding controls,C. elegans DA1316; ivermectin 0.00375 uM + nemacol-1 30,95.26
same,total animals normalized to corresponding controls,C. elegans DA1316; ivermectin 0.00375 uM + nemacol-1 60,95.05
same,total animals normalized to corresponding controls,C. elegans DA1316; ivermectin 0.03 uM + nemacol-1 0.00366211,117.10
same,total animals normalized to corresponding controls,C. elegans DA1316; ivermectin 0.03 uM + nemacol-1 0.9375,95.99
same,total animals normalized to corresponding controls,C. elegans DA1316; ivermectin 0.03 uM + nemacol-1 3.75,106.91
same,total animals normalized to corresponding controls,C. elegans DA1316; ivermectin 0.03 uM + nemacol-1 7.5,93.50
same,total animals normalized to corresponding controls,C. elegans DA1316; ivermectin 0.03 uM + nemacol-1 15,78.16
same,total animals normalized to corresponding controls,C. elegans DA1316; ivermectin 0.03 uM + nemacol-1 30,62.13
same,total animals normalized to corresponding controls,C. elegans DA1316; ivermectin 0.03 uM + nemacol-1 60,54.19
same,total animals normalized to corresponding controls,C. elegans DA1316; ivermectin 0.06 uM + nemacol-1 0.00732422,74.90
same,total animals normalized to corresponding controls,C. elegans DA1316; ivermectin 0.06 uM + nemacol-1 1.875,82.85
same,total animals normalized to corresponding controls,C. elegans DA1316; ivermectin 0.06 uM + nemacol-1 3.75,87.36
same,total animals normalized to corresponding controls,C. elegans DA1316; ivermectin 0.06 uM + nemacol-1 7.5,84.34
same,total animals normalized to corresponding controls,C. elegans DA1316; ivermectin 0.06 uM + nemacol-1 15,45.86
same,total animals normalized to corresponding controls,C. elegans DA1316; ivermectin 0.06 uM + nemacol-1 30,52.87
same,total animals normalized to corresponding controls,C. elegans DA1316; ivermectin 0.06 uM + nemacol-1 60,31.96
same,synergy with Ivermectin in triple mutant compared to wild type,"C. elegans DA1316; avr-14, avr-15, glc-1 triple mutant",0.6 fold
same,adult worms P (paralyzed),[1]; 6h,0
same,adult worms P (paralyzed),[1]; 24h,0
same,Fraction Coiled,[2]; [3],0.5185
same,Fraction Jerky-Unc,[2]; [3],0.2778
same,Fraction Parayzed,[2]; [3],0.2037
same,adult worms C1 (loose coil),[2]; count per bio rep,4 and 3 and 5
same,adult worms C2 (tight coil),[2]; count per bio rep,6 and 4
same,adult worms NP (no phene),[2]; count per bio rep,0
